Laboratory results published in patent EP1266900A1, “Carbamates of rapamycin” (Wyeth, priority 1992, dated 1994).
Structures can show the parent of a compound that is named as a salt. Where two headings read alike, the source gives them in different places.

How the values were obtained:
pinch skin graft = pinch skin graft survival time, in vivo; set-up: species or system male C3H(H-2K) recipients; settings: dose of 4 mg/kg, intraperitoneally or orally, untreated grafts usually rejected within 6-7 days
Method: (§1) Immunosuppressive activity for representative compounds of this invention was evaluated in an in vitro standard pharmacological test procedure to measure lymphocyte proliferation (LAF) and in an in vivo standard pharmacological test procedure which evaluated the survival time of a pinch skin graft.
Representative compounds of this invention were also evaluated in an in vivo test procedure designed to determine the survival time of pinch skin graft from male BAB/c donors transplanted to male C3H(H-2K) recipients. The method is adapted from Billingham R.E. and Medawar P.B., J. Exp. Biol. 28:385-402, (1951). Briefly, a pinch skin graft from the donor was grafted on the dorsum of the recipient as a allograft, and an isograft was used as control in the same region. The recipients were treated with either varying concentrations of test compounds intraperitoneally or orally. Rapamycin was used as a test control. Untreated recipients serve as rejection control. The graft was monitored daily and observations were recorded until the graft became dry and formed a blackened scab. This was considered as the rejection day. The mean graft survival time (number of days ± S.D.) of the drug treatment group was compared with the control group. […] Results are expressed as the mean survival time in days. Untreated (control) pinch skin grafts are usually rejected within 6-7 days. The results shown in Table 1 are based on a dose of 4 mg/kg of test compound. A survival time of 12.0 ± 1.7 days was obtained for rapamycin at 4 mg/kg.

[1] = tested on: cells from the thymus of normal BALB/c mice; assay: comitogen-induced thymocyte proliferation procedure (LAF); assay type: cell-based; settings: for IC50: read-out: LAF IC50; for LAF (ratio): ratio compared with rapamycin, greater than 1 = inhibited thymocyte proliferation to a greater extent than rapamycin
Method: as §1
The comitogen-induced thymocyte proliferation procedure (LAF) was used as an in vitro measure of the immunosuppressive effects of representative compounds. Briefly, cells from the thymus of normal BALB/c mice are cultured for 72 hours with PHA and IL-1 and pulsed with tritiated thymidine during the last six hours. Cells are cultured with and without various concentrations of rapamycin, cyclosporin A, or test compound. Cells are harvested and incorporated radioactivity is determined. Inhibition of lymphoproliferation is assessed as percent change in counts per minute from non-drug treated controls. For each compound evaluated, rapamycin was also evaluated for the purpose of comparison. An IC50 was obtained for each test compound as well as for rapamycin. […] A positive ratio indicates immunosuppressive activity. […] Calculation of the ratio is shown below. (()^3 H-control thymus cells -)/(()^3 H-control thymus cells -)(()^3 H-rapamycin-treated thymus cells)/(()^3 H-test compound-treated cells) [formula]

[2] = thymocytes cultured for 72 hours with PHA and IL-1, tritiated thymidine incorporation

Compound	Skin Graft (days ± SD), mean survival time (pinch skin graft; hydrochloride salt, 4 mg/kg) [days]	IC50 ([1]; thymocytes cultured for 72 hours with PHA and IL-1, tritiated thymidine incorporation, hydrochloride salt) [nM]	Skin Graft (days ± SD), mean survival time (pinch skin graft) [days]	IC50 ([1]; Mus musculus, Thymocyte, 72 h, thymocytes cultured for 72 hours with PHA and IL-1, tritiated thymidine incorporation) [nM]	LAF (ratio) [1]	IC50 ([1]; Mus musculus, Thymocyte, 72 h) [nM]	IC50 [1, 2] [nM]
CO[C@H]1C[C@@H]2CC[C@@H](C)[C@@](O)(O2)C(=O)C(=O)N2CCCC[C@H]2C(=O)O[C@H]([C@H](C)C[C@@H]2CC[C@@H](OC(=O)NCc3cccnc3)[C@H](OC)C2)CC(=O)[C@H](C)/C=C(\C)[C@@H](O)[C@@H](OC)C(=O)[C@H](C)C[C@H](C)/C=C/C=C/C=C/1C [Example 13, Rapamycin 42-ester with 3-pyridinylmethyl carbamic acid hydrochloride salt]	9.50 ± 0.6	0.9	–	–	–	–	–
CO[C@H]1C[C@@H]2CC[C@@H](C)[C@@](O)(O2)C(=O)C(=O)N2CCCC[C@H]2C(=O)O[C@H]([C@H](C)C[C@@H]2CC[C@@H](OC(=O)NCc3ccncc3)[C@H](OC)C2)CC(=O)[C@H](C)/C=C(\C)[C@@H](O)[C@@H](OC)C(=O)[C@H](C)C[C@H](C)/C=C/C=C/C=C/1C [Example 14, Rapamycin 42-ester with 4-pyridinylmethyl carbamic acid]	–	–	9.17 ± 1.7	0.5	3.8	–	–
CO[C@H]1C[C@@H]2CC[C@@H](C)[C@@](O)(O2)C(=O)C(=O)N2CCCC[C@H]2C(=O)O[C@H]([C@H](C)C[C@@H]2CC[C@@H](O)[C@H](OC)C2)CC(=O)[C@H](C)/C=C(\C)[C@@H](O)[C@@H](OC)C(=O)[C@H](C)C[C@H](C)/C=C/C=C/C=C/1C [rapamycin, Rapamycin]	–	–	12.0 ± 1.7	–	–	2.2 to 9.9	–
Rapamycin 42-ester with 2-(2-aminoethoxy)ethyl carbamic acid [Example 21]	–	–	10.4 ± 0.5	–	0.6	–	6
Rapamycin 42-ester with 2-pyridinylmethyl carbamic acid hydrochloride salt [Example 11]	–	–	11.40 ± 0.9	–	5.0	–	0.7
